# Where “and” joins values, the source holds several entries; their conditions need not be identical. Identical values can stand only once.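 Five compound concentrations were applied to cells in 96-well plates for 48 hours; endpoints were derived by simple linear interpolation of the resulting dose-response curve. TGI: concentration producing complete growth inhibition.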
# What was measured:
# Experiment in all cases: NCI-60 cell line screen, 48 h
# [1] = system: 786-0 renal
# [2] = system: A498 renal
# [3] = system: A549 NSCLC
# [4] = system: ACHN renal
# [5] = system: BT-549 breast
# [6] = system: CAKI-1 renal
# [7] = system: CCRF-CEM leukemia
# [8] = system: COLO 205 colon
# [9] = system: DLD-1 colon
# [10] = system: DMS 114 small cell lung
# [11] = system: DU-145 prostate
# [12] = system: EKVX NSCLC
# [13] = system: HCC-2998 colon
# [14] = system: HCT-116 colon
# [15] = system: HCT-15 colon
# [16] = system: HL-60(TB) leukemia
# [17] = system: HOP-18 NSCLC
# [18] = system: HOP-62 NSCLC
# [19] = system: HOP-92 NSCLC
# [20] = system: HS 578T breast
# [21] = system: HT29 colon
# [22] = system: IGROV1 ovarian
# [23] = system: K-562 leukemia
# [24] = system: KM12 colon
# [25] = system: KM20L2 colon
# [26] = system: LOX IMVI melanoma
# [27] = system: LXFL 529 NSCLC
# [28] = system: M14 melanoma
# [29] = system: M19-MEL melanoma
# [30] = system: MALME-3M melanoma
# [31] = system: MCF7 breast
# [32] = system: MDA-MB-231 breast
# [33] = system: MDA-N
# [34] = system: MOLT-4 leukemia
# [35] = system: NCI-H226 lung
# [36] = system: NCI-H23 lung
# [37] = system: NCI-H460 lung
# [38] = system: NCI-H522 lung
# [39] = system: OVCAR-3 ovarian
# [40] = system: OVCAR-4 ovarian
# [41] = system: OVCAR-5 ovarian
# [42] = system: OVCAR-8 ovarian
# [43] = system: PC-3 prostate
# [44] = system: RPMI-8226 leukemia
# [45] = system: RXF 393 renal
# [46] = system: SF-268 CNS
# [47] = system: SF-295 CNS
# [48] = system: SF-539 CNS
# [49] = system: SK-MEL-2 melanoma
# [50] = system: SK-MEL-28 melanoma
# [51] = system: SK-MEL-5 melanoma
# [52] = system: SK-OV-3 ovarian
# [53] = system: SN12C renal
# [54] = system: SNB-19 CNS
# [55] = system: SNB-75 CNS
# [56] = system: SNB-78 CNS
# [57] = system: SR leukemia
# [58] = system: SW-620 colon
# [59] = system: T-47D breast
# [60] = system: TK-10 renal
# [61] = system: U251 CNS
# [62] = system: UACC-257 melanoma
# [63] = system: UACC-62 melanoma
# [64] = system: UO-31 renal
# [65] = system: DMS 273 small cell lung
structure (smiles),measurement,setting,value
C=C[C@]1(C)CC(O)C2C(=C)C(=O)OC2[C@H]1C(=C)C=O (some centres not stated),TGI,[1],4.47 µM
same,TGI,[2],14.7 µM
same,TGI,[3],43.6 µM
same,TGI,[4],6.33 µM
same,TGI,[5],15.8 µM
same,TGI,[6],13.5 µM
same,TGI,[7],4.4 µM
same,TGI,[8],21.7 µM
same,TGI,[9],6.73 µM
same,TGI,[10],22.6 µM
same,TGI,[11],27.1 µM
same,TGI,[12],33.7 µM
same,TGI,[13],27.9 µM
same,TGI,[14],3.26 µM
same,TGI,[15],7.22 µM
same,TGI,[16],2.41 µM
same,TGI,[17],15.1 µM
same,TGI,[18],34 µM
same,TGI,[19],6.08 µM
same,TGI,[20],> 100 µM
same,TGI,[21],7.05 µM
same,TGI,[22],25 µM
same,TGI,[23],8.52 µM
same,TGI,[24],12.5 µM
same,TGI,[25],17.4 µM
same,TGI,[26],4.6 µM
same,TGI,[27],3.47 µM
same,TGI,[28],8.18 µM
same,TGI,[29],7.98 µM
same,TGI,[30],3.62 µM
same,TGI,[31],3.18 µM
same,TGI,[32],10.3 µM
same,TGI,[33],36.8 µM
same,TGI,[34],21.8 µM
same,TGI,[35],13.9 µM
same,TGI,[36],7.62 µM
same,TGI,[37],31.8 µM
same,TGI,[38],2.35 µM
same,TGI,[39],7.24 µM
same,TGI,[40],17.7 µM
same,TGI,[41],24.8 µM
same,TGI,[42],6.74 µM
same,TGI,[43],10 µM
same,TGI,[44],5.94 µM
same,TGI,[45],4.83 µM
same,TGI,[46],8.21 µM
same,TGI,[47],30.2 µM
same,TGI,[48],10.5 µM
same,TGI,[49],13.4 µM
same,TGI,[50],4.37 µM
same,TGI,[51],6.66 µM
same,TGI,[52],66.2 µM
same,TGI,[53],5.88 µM
same,TGI,[54],44.1 µM
same,TGI,[55],47.9 µM
same,TGI,[56],13.4 µM
same,TGI,[57],20 µM
same,TGI,[58],4.19 µM
same,TGI,[59],9.35 µM
same,TGI,[60],11.4 µM
same,TGI,[61],24.8 µM
same,TGI,[62],4.31 µM
same,TGI,[63],3.83 µM
same,TGI,[64],13.7 µM
COc1nc(=O)cc(N)n1C1OC(CO)C(O)C1O (configuration not stated),TGI,[1],> 100 µM
same,TGI,[2],> 100 µM
same,TGI,[3],> 100 µM
same,TGI,[4],> 100 µM
same,TGI,[6],> 100 µM
same,TGI,[7],> 100 µM
same,TGI,[8],> 100 µM
same,TGI,[9],> 100 µM
same,TGI,[10],> 100 µM
same,TGI,[65],> 100 µM
same,TGI,[12],> 100 µM
same,TGI,[13],> 100 µM
same,TGI,[14],> 100 µM
same,TGI,[15],> 100 µM
same,TGI,[16],> 100 µM
same,TGI,[18],> 100 µM
same,TGI,[21],> 100 µM
same,TGI,[22],> 100 µM
same,TGI,[23],> 100 µM
same,TGI,[24],> 100 µM
same,TGI,[25],> 100 µM
same,TGI,[26],> 100 µM
same,TGI,[27],> 100 µM
same,TGI,[28],> 100 µM
same,TGI,[29],> 100 µM
same,TGI,[30],> 100 µM
same,TGI,[34],> 100 µM
same,TGI,[35],> 100 µM
same,TGI,[36],> 100 µM
same,TGI,[37],> 100 µM
same,TGI,[38],> 100 µM
same,TGI,[39],> 100 µM
same,TGI,[41],> 100 µM
same,TGI,[42],> 100 µM
same,TGI,[44],> 100 µM
same,TGI,[45],> 100 µM
same,TGI,[46],> 100 µM
same,TGI,[47],> 100 µM
same,TGI,[48],> 100 µM
same,TGI,[49],> 100 µM
same,TGI,[50],> 100 µM
same,TGI,[51],> 100 µM
same,TGI,[52],> 100 µM
same,TGI,[53],> 100 µM
same,TGI,[54],> 100 µM
same,TGI,[55],> 100 µM
same,TGI,[56],> 100 µM
same,TGI,[58],> 100 µM
same,TGI,[60],> 100 µM
same,TGI,[61],> 100 µM
same,TGI,[62],> 100 µM
same,TGI,[63],> 100 µM
same,TGI,[64],> 100 µM
COc1cc2c(cc1OC)-c1cc(OC)c(OC)cc1[C@H]1CN3CCC[C@@]3(O)C=C21,TGI,[3],0.106 µM and 0.414 µM
same,TGI,[4],0.000787 µM
same,TGI,[6],0.000403 µM
same,TGI,[8],< 0.0001 µM
same,TGI,[10],0.00117 µM
same,TGI,[65],0.000208 µM
same,TGI,[13],0.0437 µM
same,TGI,[14],0.0101 µM
same,TGI,[16],< 0.0001 µM
same,TGI,[17],0.000164 µM
same,TGI,[23],0.101 µM and 0.0521 µM
same,TGI,[24],0.00316 µM and 0.0152 µM
same,TGI,[28],0.000105 µM
same,TGI,[29],0.000362 µM
same,TGI,[30],< 0.0001 µM
same,TGI,[35],0.00253 µM
same,TGI,[36],0.000267 µM
same,TGI,[38],< 0.0001 µM
same,TGI,[40],0.0032 µM and 0.0117 µM
same,TGI,[45],0.0126 µM
same,TGI,[49],< 0.0001 µM
same,TGI,[51],0.000139 µM
same,TGI,[56],0.00164 µM
same,TGI,[57],< 0.0001 µM
same,TGI,[60],0.161 µM
N/N=C(\CCN1CCCC1)CC(c1ccccc1)c1c(O)c2ccccc2oc1=O (configuration not stated),TGI,[1],> 100 µM
same,TGI,[3],> 100 µM
same,TGI,[4],> 100 µM
same,TGI,[6],> 100 µM
same,TGI,[7],> 100 µM
same,TGI,[8],> 100 µM
same,TGI,[9],> 100 µM
same,TGI,[10],> 100 µM
same,TGI,[65],> 100 µM
same,TGI,[12],> 100 µM
same,TGI,[13],> 100 µM
same,TGI,[14],> 100 µM
same,TGI,[15],> 100 µM
same,TGI,[16],> 100 µM
same,TGI,[17],> 100 µM
same,TGI,[18],> 100 µM
same,TGI,[19],> 100 µM
same,TGI,[21],> 100 µM
same,TGI,[22],> 100 µM
same,TGI,[23],> 100 µM
same,TGI,[24],> 100 µM
same,TGI,[25],> 100 µM
same,TGI,[26],> 100 µM
same,TGI,[27],> 100 µM
same,TGI,[28],> 100 µM
same,TGI,[29],> 100 µM
same,TGI,[30],> 100 µM
same,TGI,[34],> 100 µM
same,TGI,[35],> 100 µM
same,TGI,[36],> 100 µM
same,TGI,[37],> 100 µM
same,TGI,[38],> 100 µM
same,TGI,[39],> 100 µM
same,TGI,[40],> 100 µM
same,TGI,[41],> 100 µM
same,TGI,[42],> 100 µM
same,TGI,[44],> 100 µM
same,TGI,[45],> 100 µM
same,TGI,[46],> 100 µM
same,TGI,[47],> 100 µM
same,TGI,[48],> 100 µM
same,TGI,[49],> 100 µM
same,TGI,[50],> 100 µM
same,TGI,[51],> 100 µM
same,TGI,[52],> 100 µM
same,TGI,[53],> 100 µM
same,TGI,[54],> 100 µM
same,TGI,[55],> 100 µM
same,TGI,[56],> 100 µM
same,TGI,[57],> 100 µM
same,TGI,[58],> 100 µM
same,TGI,[60],> 100 µM
same,TGI,[61],> 100 µM
same,TGI,[62],> 100 µM
same,TGI,[63],> 100 µM
Cc1ccc(Oc2ccc(C(=O)c3cccc(C(=O)c4ccc(Oc5ccc(C)cc5)cc4)n3)cc2)cc1,TGI,[1],> 100 µM
same,TGI,[2],> 100 µM
same,TGI,[3],> 100 µM
same,TGI,[4],> 100 µM
same,TGI,[6],> 100 µM
same,TGI,[7],> 100 µM
same,TGI,[8],> 100 µM
same,TGI,[9],> 100 µM
same,TGI,[10],> 100 µM
same,TGI,[65],> 100 µM
same,TGI,[12],> 100 µM
same,TGI,[13],> 100 µM
same,TGI,[14],> 100 µM
same,TGI,[15],> 100 µM
same,TGI,[16],> 100 µM
same,TGI,[17],> 100 µM
same,TGI,[18],> 100 µM
same,TGI,[19],> 100 µM
same,TGI,[21],> 100 µM
same,TGI,[22],> 100 µM
same,TGI,[23],> 100 µM
same,TGI,[24],> 100 µM
same,TGI,[25],> 100 µM
same,TGI,[26],> 100 µM
same,TGI,[27],> 100 µM
same,TGI,[28],> 100 µM
same,TGI,[30],> 100 µM
same,TGI,[34],> 100 µM
same,TGI,[35],> 100 µM
same,TGI,[36],> 100 µM
same,TGI,[37],> 100 µM
same,TGI,[38],> 100 µM
same,TGI,[39],> 100 µM
same,TGI,[40],> 100 µM
same,TGI,[41],> 100 µM
same,TGI,[42],> 100 µM
same,TGI,[45],> 100 µM
same,TGI,[46],> 100 µM
same,TGI,[47],> 100 µM
same,TGI,[48],> 100 µM
same,TGI,[49],> 100 µM
same,TGI,[50],> 100 µM
same,TGI,[51],> 100 µM
same,TGI,[52],> 100 µM
same,TGI,[53],> 100 µM
same,TGI,[54],> 100 µM
same,TGI,[55],> 100 µM
same,TGI,[56],> 100 µM
same,TGI,[57],> 100 µM
same,TGI,[58],> 100 µM
same,TGI,[60],> 100 µM
same,TGI,[61],> 100 µM
same,TGI,[62],> 100 µM
same,TGI,[63],> 100 µM
same,TGI,[64],> 100 µM
